# Source: ChEMBL document CHEMBL4507274 (2021)
# Tests used:
# [1] = test system: Tyrosine-protein kinase ABL1 (Homo sapiens), P00519 [F317I]; settings: Compound concentration 100.0 nM
# [2] = biological target: Serine/threonine-protein kinase Nek11 (Homo sapiens) (UniProt Q8NG66); settings: Compound concentration 100.0 nM
# [3] = biological target: ALK tyrosine kinase receptor (Homo sapiens) (UniProt Q9UM73); settings: Compound concentration 100.0 nM
# [4] = biological target: Serine/threonine-protein kinase TNNI3K (Homo sapiens) (UniProt Q59H18); settings: Compound concentration 100.0 nM
# Serine/threonine-protein kinase TNNI3K (Homo sapiens), sequence (Q59H18 whole entry): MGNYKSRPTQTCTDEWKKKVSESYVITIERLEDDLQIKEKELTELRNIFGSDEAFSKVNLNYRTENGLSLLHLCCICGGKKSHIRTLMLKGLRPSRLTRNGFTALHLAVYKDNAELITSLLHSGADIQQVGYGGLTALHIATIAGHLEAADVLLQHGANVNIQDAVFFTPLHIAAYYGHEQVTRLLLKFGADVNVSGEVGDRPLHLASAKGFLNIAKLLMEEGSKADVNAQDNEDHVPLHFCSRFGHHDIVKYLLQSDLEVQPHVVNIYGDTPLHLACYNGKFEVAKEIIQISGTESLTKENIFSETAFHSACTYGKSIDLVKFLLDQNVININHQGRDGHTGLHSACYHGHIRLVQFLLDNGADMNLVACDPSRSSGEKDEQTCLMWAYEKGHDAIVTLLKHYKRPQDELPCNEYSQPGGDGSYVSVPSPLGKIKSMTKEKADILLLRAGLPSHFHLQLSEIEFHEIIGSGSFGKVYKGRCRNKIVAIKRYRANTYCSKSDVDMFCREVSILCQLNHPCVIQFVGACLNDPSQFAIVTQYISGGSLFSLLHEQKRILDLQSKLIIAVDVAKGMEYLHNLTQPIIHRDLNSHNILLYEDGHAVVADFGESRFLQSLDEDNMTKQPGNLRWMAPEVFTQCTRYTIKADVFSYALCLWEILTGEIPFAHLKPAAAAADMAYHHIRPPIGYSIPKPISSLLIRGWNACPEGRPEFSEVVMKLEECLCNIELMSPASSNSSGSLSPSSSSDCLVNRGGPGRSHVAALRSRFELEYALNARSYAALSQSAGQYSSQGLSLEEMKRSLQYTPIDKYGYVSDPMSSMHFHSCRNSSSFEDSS
# [5] = biological target: Misshapen-like kinase 1 (Homo sapiens) (UniProt Q8N4C8); settings: Compound concentration 100.0 nM
# [6] = biological target: Mitotic checkpoint serine/threonine-protein kinase BUB1 (Homo sapiens) (UniProt O43683); settings: Compound concentration 100.0 nM
# [7] = biological target: Mitogen-activated protein kinase 15 (Homo sapiens) (UniProt Q8TD08); settings: Compound concentration 100.0 nM
# [8] = biological target: Tyrosine-protein kinase Srms (Homo sapiens) (UniProt Q9H3Y6); settings: Compound concentration 100.0 nM
# [9] = biological target: Discoidin domain-containing receptor 2 (Homo sapiens) (UniProt Q16832); settings: Compound concentration 100.0 nM
# [10] = test system: Mast/stem cell growth factor receptor Kit (Homo sapiens), P10721 [D816H]; settings: Compound concentration 100.0 nM
# [11] = biological target: Activin receptor type-2B (Homo sapiens) (UniProt Q13705); settings: Compound concentration 100.0 nM
# Activin receptor type-2B (Homo sapiens), sequence (Q13705 whole entry): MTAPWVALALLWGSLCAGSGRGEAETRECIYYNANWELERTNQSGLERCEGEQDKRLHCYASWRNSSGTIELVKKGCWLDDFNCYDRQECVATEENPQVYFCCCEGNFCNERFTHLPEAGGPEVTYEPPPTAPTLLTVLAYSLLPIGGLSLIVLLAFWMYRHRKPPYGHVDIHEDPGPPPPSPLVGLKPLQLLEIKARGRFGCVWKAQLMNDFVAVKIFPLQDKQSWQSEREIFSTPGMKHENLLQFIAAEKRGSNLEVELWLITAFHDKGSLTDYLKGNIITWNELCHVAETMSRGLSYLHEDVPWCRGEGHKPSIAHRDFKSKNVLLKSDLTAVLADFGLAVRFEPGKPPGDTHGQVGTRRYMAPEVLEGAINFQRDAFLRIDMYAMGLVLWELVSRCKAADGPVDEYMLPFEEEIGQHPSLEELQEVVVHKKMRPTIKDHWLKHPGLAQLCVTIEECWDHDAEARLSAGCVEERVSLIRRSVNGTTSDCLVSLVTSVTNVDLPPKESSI
# [12] = biological target: Insulin-like growth factor 1 receptor (Homo sapiens) (UniProt P08069); settings: Compound concentration 100.0 nM
# [13] = biological target: Tyrosine-protein kinase Lck (Homo sapiens) (UniProt P06239); settings: Compound concentration 100.0 nM
# [14] = biological target: Tyrosine-protein kinase Fgr (Homo sapiens) (UniProt P09769); settings: Compound concentration 100.0 nM
# [15] = biological target: Testis-specific serine/threonine-protein kinase 1 (Homo sapiens) (UniProt Q9BXA7); settings: Compound concentration 100.0 nM
# Testis-specific serine/threonine-protein kinase 1 (Homo sapiens), sequence (Q9BXA7 whole entry): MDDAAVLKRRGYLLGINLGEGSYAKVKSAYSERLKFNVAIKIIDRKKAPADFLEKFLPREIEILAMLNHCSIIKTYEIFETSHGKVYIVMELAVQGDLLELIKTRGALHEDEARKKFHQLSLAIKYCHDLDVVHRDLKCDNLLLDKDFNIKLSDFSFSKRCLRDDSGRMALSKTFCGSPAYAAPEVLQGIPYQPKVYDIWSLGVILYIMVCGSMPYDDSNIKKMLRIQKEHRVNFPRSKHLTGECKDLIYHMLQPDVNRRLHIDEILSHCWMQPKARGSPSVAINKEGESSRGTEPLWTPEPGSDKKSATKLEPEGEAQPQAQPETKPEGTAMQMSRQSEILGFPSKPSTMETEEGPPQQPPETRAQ
# [16] = biological target: Histamine H4 receptor (Homo sapiens) (UniProt Q9H3N8); settings: Compound concentration 10.0 uM
# [17] = test system: Fibroblast growth factor receptor 3 (Homo sapiens), P22607 [G697C]; settings: Compound concentration 100.0 nM
# [18] = biological target: Cyclin-dependent kinase 4 (Homo sapiens) (UniProt P11802); settings: Compound concentration 100.0 nM
# [19] = biological target: Calcium/calmodulin-dependent protein kinase type 1D (Homo sapiens) (UniProt Q8IU85); settings: Compound concentration 100.0 nM
# Calcium/calmodulin-dependent protein kinase type 1D (Homo sapiens), sequence (Q8IU85 whole entry, looked up): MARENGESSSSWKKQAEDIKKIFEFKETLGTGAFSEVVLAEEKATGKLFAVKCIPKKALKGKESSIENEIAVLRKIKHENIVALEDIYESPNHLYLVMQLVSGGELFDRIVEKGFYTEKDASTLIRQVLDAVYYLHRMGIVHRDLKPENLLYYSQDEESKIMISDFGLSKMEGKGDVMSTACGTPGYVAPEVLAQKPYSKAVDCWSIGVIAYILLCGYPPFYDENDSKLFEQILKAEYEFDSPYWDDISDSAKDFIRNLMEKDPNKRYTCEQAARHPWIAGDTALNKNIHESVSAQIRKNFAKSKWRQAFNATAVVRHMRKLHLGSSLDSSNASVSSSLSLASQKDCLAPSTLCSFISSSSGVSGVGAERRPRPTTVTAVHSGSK
# [20] = biological target: Death-associated protein kinase 3 (Homo sapiens) (UniProt O43293); settings: Compound concentration 100.0 nM
# [21] = biological target: NUAK family SNF1-like kinase 2 (Homo sapiens) (UniProt Q9H093); settings: Compound concentration 100.0 nM
# NUAK family SNF1-like kinase 2 (Homo sapiens), sequence (Q9H093 whole entry): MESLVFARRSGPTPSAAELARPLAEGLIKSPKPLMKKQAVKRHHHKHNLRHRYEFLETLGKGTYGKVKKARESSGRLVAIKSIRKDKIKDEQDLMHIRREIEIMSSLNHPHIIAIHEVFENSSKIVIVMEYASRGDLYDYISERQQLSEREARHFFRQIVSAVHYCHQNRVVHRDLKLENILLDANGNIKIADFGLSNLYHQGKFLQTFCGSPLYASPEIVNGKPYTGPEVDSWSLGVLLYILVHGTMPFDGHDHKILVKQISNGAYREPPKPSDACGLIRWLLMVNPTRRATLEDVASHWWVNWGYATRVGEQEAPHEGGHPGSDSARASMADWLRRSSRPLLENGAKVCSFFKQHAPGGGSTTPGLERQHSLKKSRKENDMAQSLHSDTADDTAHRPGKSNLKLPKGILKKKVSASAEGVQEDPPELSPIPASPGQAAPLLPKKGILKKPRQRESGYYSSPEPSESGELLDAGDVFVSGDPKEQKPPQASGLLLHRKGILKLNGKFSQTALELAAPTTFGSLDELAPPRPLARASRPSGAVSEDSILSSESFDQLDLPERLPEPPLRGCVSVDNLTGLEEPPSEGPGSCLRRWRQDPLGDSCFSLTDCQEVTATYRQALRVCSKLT
# [22] = test system: Receptor-type tyrosine-protein kinase FLT3 (Homo sapiens), P36888 [UNDEFINED MUTATION]; settings: Compound concentration 100.0 nM
# Receptor-type tyrosine-protein kinase FLT3 (Homo sapiens), P36888 [UNDEFINED MUTATION], sequence (P36888 whole entry, looked up, change not shown): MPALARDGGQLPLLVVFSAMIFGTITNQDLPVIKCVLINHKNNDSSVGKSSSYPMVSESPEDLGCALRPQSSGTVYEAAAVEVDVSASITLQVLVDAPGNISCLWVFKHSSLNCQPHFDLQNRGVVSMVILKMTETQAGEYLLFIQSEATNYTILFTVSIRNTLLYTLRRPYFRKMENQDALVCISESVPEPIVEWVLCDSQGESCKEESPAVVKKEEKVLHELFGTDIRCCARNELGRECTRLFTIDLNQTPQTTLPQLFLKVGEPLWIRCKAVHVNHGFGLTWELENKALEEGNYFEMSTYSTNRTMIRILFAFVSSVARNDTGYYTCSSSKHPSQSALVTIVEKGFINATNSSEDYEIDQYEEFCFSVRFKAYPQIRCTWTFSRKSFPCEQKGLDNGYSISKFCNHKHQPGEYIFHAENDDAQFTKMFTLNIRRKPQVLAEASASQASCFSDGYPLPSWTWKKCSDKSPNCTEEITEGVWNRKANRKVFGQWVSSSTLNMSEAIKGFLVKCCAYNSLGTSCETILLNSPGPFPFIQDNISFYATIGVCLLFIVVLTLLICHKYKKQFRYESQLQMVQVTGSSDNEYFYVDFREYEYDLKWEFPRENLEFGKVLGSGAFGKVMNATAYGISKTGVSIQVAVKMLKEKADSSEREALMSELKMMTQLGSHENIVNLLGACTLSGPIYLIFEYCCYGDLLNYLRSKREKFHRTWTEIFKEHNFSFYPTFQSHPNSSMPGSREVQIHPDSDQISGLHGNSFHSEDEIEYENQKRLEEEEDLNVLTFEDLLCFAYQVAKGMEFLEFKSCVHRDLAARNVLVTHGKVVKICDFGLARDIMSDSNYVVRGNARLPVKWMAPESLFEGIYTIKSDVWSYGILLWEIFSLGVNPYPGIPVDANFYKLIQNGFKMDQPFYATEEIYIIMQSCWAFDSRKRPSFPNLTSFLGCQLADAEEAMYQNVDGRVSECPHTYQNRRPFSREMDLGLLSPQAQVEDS
# [23] = biological target: Serine/threonine-protein kinase RIO3 (Homo sapiens) (UniProt O14730); settings: Compound concentration 100.0 nM
# [24] = biological target: T1, Serine/threonine-protein kinase Chk1 (Homo sapiens) (UniProt O14757); settings: Compound concentration 100.0 nM
# T1 sequence (whole entry): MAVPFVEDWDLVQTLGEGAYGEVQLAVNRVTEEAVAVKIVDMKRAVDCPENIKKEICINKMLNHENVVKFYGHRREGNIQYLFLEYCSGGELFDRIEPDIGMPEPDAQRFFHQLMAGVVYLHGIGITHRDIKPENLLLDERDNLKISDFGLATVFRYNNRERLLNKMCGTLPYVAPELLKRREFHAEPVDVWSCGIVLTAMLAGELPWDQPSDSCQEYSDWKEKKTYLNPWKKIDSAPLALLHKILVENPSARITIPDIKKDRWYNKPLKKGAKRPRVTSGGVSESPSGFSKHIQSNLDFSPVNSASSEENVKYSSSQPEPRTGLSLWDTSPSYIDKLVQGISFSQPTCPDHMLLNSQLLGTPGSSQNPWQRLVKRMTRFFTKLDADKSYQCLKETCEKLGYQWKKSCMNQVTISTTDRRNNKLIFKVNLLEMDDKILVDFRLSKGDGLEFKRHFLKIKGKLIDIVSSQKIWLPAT
# [25] = biological target: TRAF2 and NCK-interacting protein kinase (Homo sapiens) (UniProt Q9UKE5); settings: Compound concentration 100.0 nM
# [26] = biological target: Tyrosine-protein kinase Fer (Homo sapiens) (UniProt P16591); settings: Compound concentration 100.0 nM
# [27] = biological target: Sigma non-opioid intracellular receptor 1 (Homo sapiens, UniProt Q99720); settings: Compound concentration 10.0 uM
# [28] = test system: Tyrosine-protein kinase ABL1 (Homo sapiens), P00519 [M351T]; settings: Compound concentration 100.0 nM
# [29] = biological target: Muscle, skeletal receptor tyrosine-protein kinase (Homo sapiens) (UniProt O15146); settings: Compound concentration 100.0 nM
# Muscle, skeletal receptor tyrosine-protein kinase (Homo sapiens), sequence (O15146 whole entry): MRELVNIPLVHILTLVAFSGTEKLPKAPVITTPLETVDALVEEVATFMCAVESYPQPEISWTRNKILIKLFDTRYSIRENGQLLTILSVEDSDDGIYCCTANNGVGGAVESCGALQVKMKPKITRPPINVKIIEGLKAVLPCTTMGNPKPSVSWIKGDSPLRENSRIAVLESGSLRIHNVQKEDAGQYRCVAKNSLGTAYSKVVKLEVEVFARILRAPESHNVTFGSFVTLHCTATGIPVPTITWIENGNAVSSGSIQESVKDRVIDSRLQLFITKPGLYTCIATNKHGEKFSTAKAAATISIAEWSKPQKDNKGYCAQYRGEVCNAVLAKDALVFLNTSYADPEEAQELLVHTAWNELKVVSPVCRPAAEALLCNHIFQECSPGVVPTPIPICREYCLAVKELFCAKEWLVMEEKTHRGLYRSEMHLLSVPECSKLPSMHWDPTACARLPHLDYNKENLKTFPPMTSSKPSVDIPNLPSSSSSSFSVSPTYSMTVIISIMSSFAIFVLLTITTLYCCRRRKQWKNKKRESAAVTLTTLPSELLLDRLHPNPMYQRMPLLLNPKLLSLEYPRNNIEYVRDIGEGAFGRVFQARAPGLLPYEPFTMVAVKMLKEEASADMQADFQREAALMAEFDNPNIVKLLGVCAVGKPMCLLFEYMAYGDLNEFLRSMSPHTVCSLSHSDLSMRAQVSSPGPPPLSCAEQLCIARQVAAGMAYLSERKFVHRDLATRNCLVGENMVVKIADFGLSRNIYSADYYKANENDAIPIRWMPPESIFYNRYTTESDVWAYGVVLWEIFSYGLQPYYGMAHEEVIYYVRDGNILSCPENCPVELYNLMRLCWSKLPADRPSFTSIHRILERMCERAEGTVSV
# [30] = biological target: Mitogen-activated protein kinase kinase kinase 1 (Homo sapiens) (UniProt Q13233); settings: Compound concentration 100.0 nM
# [31] = biological target: Protein-tyrosine kinase 6 (Homo sapiens) (UniProt Q13882); settings: Compound concentration 100.0 nM
# [32] = biological target: Mitogen-activated protein kinase 7 (Homo sapiens) (UniProt Q13164); settings: Compound concentration 100.0 nM
# [33] = biological target: Rho-associated protein kinase 1 (Homo sapiens) (UniProt Q13464); settings: Compound concentration 100.0 nM
# [34] = biological target: Eukaryotic translation initiation factor 2-alpha kinase 1 (Homo sapiens) (UniProt Q9BQI3); settings: Compound concentration 100.0 nM
# [35] = biological target: Tyrosine-protein kinase receptor UFO (Homo sapiens) (UniProt P30530); settings: Compound concentration 100.0 nM
# [36] = biological target: Proto-oncogene tyrosine-protein kinase ROS (Homo sapiens) (UniProt P08922); settings: Compound concentration 100.0 nM
# [37] = biological target: Calcium/calmodulin-dependent protein kinase type II subunit delta (Homo sapiens) (UniProt Q13557); settings: Compound concentration 100.0 nM
# [38] = biological target: Cyclin-dependent kinase 2 homolog (Plasmodium falciparum (isolate 3D7)) (UniProt P61075); settings: Compound concentration 100.0 nM
# Cyclin-dependent kinase 2 homolog (Plasmodium falciparum (isolate 3D7)), sequence (P61075 whole entry): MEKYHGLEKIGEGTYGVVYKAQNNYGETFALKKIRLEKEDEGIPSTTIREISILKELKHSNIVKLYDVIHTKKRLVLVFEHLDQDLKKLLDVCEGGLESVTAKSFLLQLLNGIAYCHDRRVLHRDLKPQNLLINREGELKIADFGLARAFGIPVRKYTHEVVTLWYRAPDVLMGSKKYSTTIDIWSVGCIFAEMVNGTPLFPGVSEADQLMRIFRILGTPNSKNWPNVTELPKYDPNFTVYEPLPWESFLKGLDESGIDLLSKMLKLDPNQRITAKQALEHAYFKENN
# [39] = test system: ALK tyrosine kinase receptor (Homo sapiens), Q9UM73 [C1156Y]; settings: Compound concentration 100.0 nM
Structure (SMILES),residual activity [1] [%],residual activity [2] [%],residual activity [3] [%],residual activity [4] [%],residual activity [5] [%],residual activity [6] [%],residual activity [7] [%],residual activity [8] [%],residual activity [9] [%],residual activity [10] [%],residual activity [11] [%],residual activity [12] [%],residual activity [13] [%],residual activity [14] [%],residual activity [15] [%],inhibition [16] [%],residual activity [17] [%],residual activity [18] [%],residual activity [19] [%],residual activity [20] [%],also measured
Cc1c[nH]c2nccc(Oc3c(F)cc(Nc4cc(Cl)nc(N)n4)cc3F)c12 [BAY-549],55,75,95,98,100,75,100,100,57,95,100,86,100,100,95,-8.74,100,100,94,97,residual activity [21]: 85%; residual activity [22]: 97%; residual activity [23]: 93%; residual activity [24]: 100%; residual activity [25]: 100%; residual activity [26]: 100%; inhibition [27]: 54.8%; residual activity [28]: 83%; residual activity [29]: 96%; residual activity [30]: 82%; residual activity [31]: 100%; residual activity [32]: 82%; residual activity [33]: 0.6%; residual activity [34]: 77%; residual activity [35]: 93%; residual activity [36]: 96%; residual activity [37]: 90%; residual activity [38]: 72%; residual activity [39]: 100%
Cn1cc(Cl)c2c(Oc3c(F)cc(Nc4cc(Cl)nc(N)n4)cc3F)ccnc21 [BAY-4900],89,85,89,78,93,82,100,100,66,79,79,97,100,100,100,-9.04,100,100,100,100,residual activity [21]: 85%; residual activity [22]: 100%; residual activity [23]: 93%; residual activity [24]: 100%; residual activity [25]: 96%; residual activity [26]: 100%; inhibition [27]: 22.3%; residual activity [28]: 90%; residual activity [29]: 100%; residual activity [30]: 76%; residual activity [31]: 86%; residual activity [32]: 100%; residual activity [33]: 76%; residual activity [34]: 100%; residual activity [35]: 100%; residual activity [36]: 100%; residual activity [37]: 95%; residual activity [38]: 68%; residual activity [39]: 100%
